This is an account of results in patent publication US20080194701A1, “Bifunctional Enzyme with Y-Glutamylcysteine Synthetase and Glutathione Synthetase Activity and Uses Thereof” (priority 2004, published 2008).

The target of one assay is T1, S. agalactiae γ-GCS-GS (Streptococcus agalactiae serotype V, UniProt Q8DXM9).
T1 sequence (Q8DXM9 1-750): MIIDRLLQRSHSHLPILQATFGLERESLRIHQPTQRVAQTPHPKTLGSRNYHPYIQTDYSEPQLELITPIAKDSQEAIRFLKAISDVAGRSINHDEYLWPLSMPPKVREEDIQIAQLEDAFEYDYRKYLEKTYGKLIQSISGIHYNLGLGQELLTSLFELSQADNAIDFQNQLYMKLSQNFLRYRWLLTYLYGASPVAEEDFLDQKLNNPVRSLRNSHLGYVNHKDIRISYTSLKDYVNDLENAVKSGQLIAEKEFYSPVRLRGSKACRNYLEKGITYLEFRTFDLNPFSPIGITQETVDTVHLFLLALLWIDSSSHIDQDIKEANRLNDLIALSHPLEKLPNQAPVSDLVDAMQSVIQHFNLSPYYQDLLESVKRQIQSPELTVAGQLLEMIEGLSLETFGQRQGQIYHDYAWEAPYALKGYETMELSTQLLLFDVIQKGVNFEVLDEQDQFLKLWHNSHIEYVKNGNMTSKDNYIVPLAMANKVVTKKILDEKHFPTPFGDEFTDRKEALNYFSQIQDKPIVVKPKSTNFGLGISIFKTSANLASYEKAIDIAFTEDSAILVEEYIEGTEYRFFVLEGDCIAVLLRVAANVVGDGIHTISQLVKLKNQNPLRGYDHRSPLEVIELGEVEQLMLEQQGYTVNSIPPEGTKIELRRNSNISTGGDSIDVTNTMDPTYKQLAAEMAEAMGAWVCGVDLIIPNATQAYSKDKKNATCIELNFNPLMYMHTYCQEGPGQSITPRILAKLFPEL
Nature of the assay: γ-GCS activity assay based on ADP formation, S. agalactiae γ-GCS-GS. The format is biochemical. Also noted: corresponded to full-length S. agalactiae γ-GCS-GS with an N-terminal His8-tag; made in house; host or cells: E. coli SG13009 with pQE30-gshAB plus pREP4 or pRARE. How it is done: In Table 1, a unit was defined as the amount of enzyme activity required to catalyze the formation of 1 μmol of product per hour. Specific activity was shown as units per mg protein. Activity was determined at 37° C. based on ADP formation in reaction mixtures containing L-glutamate and L-cysteine and using pyruvate kinase and lactate dehydrogenase to couple ADP formation to NADH oxidation, which was monitored at 340 nm.
Exp. Purif. 13, 268-276 (1998).
At set time points ranging from one to 30 minutes, 5 μl aliquots were removed and assayed for residual enzyme activity using the standard γ-GCS assay based on ADP formation.

Another assay addresses E. coli γ-GCS (Escherichia coli, UniProt P0A6W9). The settings on record: cited from earlier work.
For a further assay, the target named is T2, Human γ-GCS (Homo sapiens, UniProt P48506).
T2 sequence (P48506 1-637): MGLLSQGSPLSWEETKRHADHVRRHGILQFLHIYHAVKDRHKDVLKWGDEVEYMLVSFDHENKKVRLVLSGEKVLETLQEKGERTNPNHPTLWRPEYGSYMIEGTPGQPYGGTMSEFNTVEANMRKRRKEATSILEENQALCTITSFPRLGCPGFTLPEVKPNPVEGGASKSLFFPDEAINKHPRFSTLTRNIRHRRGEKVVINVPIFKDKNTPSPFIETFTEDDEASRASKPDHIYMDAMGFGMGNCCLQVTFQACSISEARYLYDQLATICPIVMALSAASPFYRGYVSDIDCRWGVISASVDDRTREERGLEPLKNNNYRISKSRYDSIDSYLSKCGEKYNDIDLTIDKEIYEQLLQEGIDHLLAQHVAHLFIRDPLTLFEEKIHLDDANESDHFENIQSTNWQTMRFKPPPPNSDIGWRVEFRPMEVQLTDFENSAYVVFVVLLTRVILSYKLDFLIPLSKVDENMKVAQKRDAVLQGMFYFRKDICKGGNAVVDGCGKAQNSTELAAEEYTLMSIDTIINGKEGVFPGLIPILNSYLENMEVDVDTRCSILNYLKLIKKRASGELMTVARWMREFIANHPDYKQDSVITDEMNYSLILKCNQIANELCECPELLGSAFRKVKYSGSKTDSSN
T2 sequence (P48507 1-274 partner): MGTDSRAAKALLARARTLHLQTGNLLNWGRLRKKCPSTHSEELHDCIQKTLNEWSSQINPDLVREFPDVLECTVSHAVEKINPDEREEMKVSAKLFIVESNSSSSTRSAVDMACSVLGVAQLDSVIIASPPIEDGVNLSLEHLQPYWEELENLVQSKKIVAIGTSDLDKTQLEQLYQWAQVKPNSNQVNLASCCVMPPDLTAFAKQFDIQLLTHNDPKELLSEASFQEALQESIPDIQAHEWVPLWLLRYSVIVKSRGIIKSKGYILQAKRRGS
The settings on record: cited from earlier work.

The subject of assay [1] is vaginal colonization with S. agalactiae (Group B Streptococcus). The settings on record: one 500 mg capsule by mouth every 6 hours from 2 days before due date. An excerpt: A person who is allergic to penicillin is seen for prenatal screening prior to delivery of their first child.
Assay [2] has as its system urinary tract infection caused by E. faecalis. As to the kind of experiment: Treatment of urinary tract infection in a patient. The format is in vivo, human. The text has this: A person weighing 50 kg presents to their physician with a urinary tract infection caused by E. faecalis. […] Two months later they return with a recurrence of the urinary tract infection due to E. faecalis.

E. coli γ-GCS, sequence (P0A6W9 whole entry): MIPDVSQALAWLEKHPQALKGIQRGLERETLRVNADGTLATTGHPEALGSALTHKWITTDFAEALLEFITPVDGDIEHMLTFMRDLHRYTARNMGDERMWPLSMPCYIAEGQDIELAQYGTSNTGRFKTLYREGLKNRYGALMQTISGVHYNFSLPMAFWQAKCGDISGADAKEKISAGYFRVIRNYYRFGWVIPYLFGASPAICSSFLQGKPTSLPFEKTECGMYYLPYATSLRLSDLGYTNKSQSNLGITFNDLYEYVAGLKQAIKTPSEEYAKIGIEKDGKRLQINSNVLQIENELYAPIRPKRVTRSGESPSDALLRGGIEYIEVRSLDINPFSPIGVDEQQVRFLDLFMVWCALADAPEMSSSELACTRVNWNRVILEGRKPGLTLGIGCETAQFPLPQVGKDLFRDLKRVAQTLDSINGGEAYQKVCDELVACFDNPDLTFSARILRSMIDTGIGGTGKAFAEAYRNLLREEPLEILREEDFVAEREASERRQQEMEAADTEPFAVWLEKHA

For the compound `CCCC[S@](=N)(=O)CC[C@H](N)C(=O)O` [L-S—BSO, L-buthionine-S-sulfoximine, reference compound], the Kd at S. agalactiae γ-GCS-GS was 2800 ± 300 µM; on E. coli γ-GCS, 66 µM; on Human γ-GCS, 25 µM. Besides, the values for the Ki on S. agalactiae γ-GCS-GS, at E. coli γ-GCS and on Human γ-GCS were 4900 ± 200 µM, 66 µM and 25 µM, respectively. Besides, the figures for the kinact at S. agalactiae γ-GCS-GS, at E. coli γ-GCS and on Human γ-GCS were 0.00217 s⁻¹, around 0.30 min⁻¹ and 3.9 min⁻¹, respectively. In addition, the t1/2 at E. coli γ-GCS (half-life for inactivation) is 2.3 min; at Human γ-GCS (half-life for inactivation), 0.183 min. Besides, the outcome of colonization in assay [1] is “no S. agalactiae bacteria are detected”. The outcome of infection is recorded as “without resolution of the infection” in assay [2] (one 500 mg capsule by mouth every 6 hours for two days) and “urine is free of detectable bacteria” in assay [2] (two 500 mg capsules every 6 hours, fourth day).

The term Kd denotes the concentration at which binding is half-saturated. As a reminder, the Ki is the equilibrium dissociation constant of an inhibitor or competing ligand from its target. Broadly, the kinact is the rate constant of inactivation at saturating inhibitor.
